This assay concerns L. mexicana promastigotes. In words: Cell cycle studies (K/N counts). The format is cell-based, Leishmania (L.) mexicana. The note with it: 50 μM, 6 and 24 h. The procedure: To investigate whether the morphological changes are a consequence of cell cycle interference, we analyzed the cell cycle over a 24 h period. Untreated L. mexicana promastigotes typically have a doubling time of 7.1 h, with each of the DNA-containing organelles replicating once in the order […], before cytokinesis, leading to two daughter cells.[37],[38] […] Cells treated with (S)-9a at 50 μM were studied after 6 and 24 h of treatment, and found to deviate from the typical cell cycle, giving rise to abnormal categories of cells with incorrectly replicated organelles (Figure 2C). For around 15% of the cells in 1K1N there was the presence of an eXtra structure (1K1N1X) that could not be clearly assigned as K or N, generally toward the posterior end of the cell body.
NCTC cells (6 × 10^4/well) were added to a 96-well plate. Treatments of the cells with selected compounds (serially diluted 1.5 to 200 μM) was performed in a humidified incubator for 96 h at 37 °C and with 5% CO2.
The MTT colorimetric method was used to determine the 50% cytotoxic concentration (CC50) and the selectivity index (CC50 against NCTC cells/IC50 against amastigotes).15 […]
[…] […] Statistical significance was derived from a two-tailed T-test.
The Graph Pad Prism 5 software was used to perform sigmoid dose-response curves for the determination of […]

The results in this text go back to paper PMC10900488, “Synthesis and Evaluation of (Bis)benzyltetrahydroisoquinoline Alkaloids as Antiparasitic Agents” (JACS Au, 2024).

The structures appear in SMILES notation.

Regarding `COc1cc2c(cc1OC)[C@H](Cc1ccc(Br)cc1)N(C)CC2` [(S)-9a], the “cells in 1K1N with an extra structure (1K1N1X)” value was “around 15%”. For the same compound, the “proportion of cells in the dividing stages (Non-1K1N)” value (versus the expected 10%) is given as “doubled”.
